Data from BindingDB's records for doi:10.1021/jm050654o (University of Bari Aldo Moro, 2005).

test: Antiproliferative activity mediated by sigma 1 receptor in rat C6 glioma cells by MTT assay

EC50	SMILES
40.2 µM	COc1ccc2c(CCCN3CCCC(C)(C)C3)cccc2c1
19.4 µM	COc1ccc2c(CCCCN3CCCCC3)cccc2c1
15 µM	COc1ccc2c(CCCCN3CCCC(C)(C)C3)cccc2c1
25.5 µM	COc1ccc2c(CCCCN3CCC(C)CC3)cccc2c1

SMILES	EC50
CCCN(CCC)CCc1ccc(OC)c(OCCc2ccccc2)c1	10.7 µM
